We go through 2 compounds from paper PMC6382835, “A critical evaluation of TRPA1-mediated locomotor behavior in zebrafish as a screening tool for novel anti-nociceptive drug discovery” (Scientific Reports, 2019).

In one assay the target is T1, mouse TRPA1 (mTRPA1) (Mus musculus, UniProt Q8BLA8).
T1 construct: host or cells: HEK293 (ATCC CRL-1573), transient transfection
The assay is described as follows: FLIPR calcium signaling assay in mTRPA1-transfected HEK293 cells. It counts as cell-based. The note with it: Schild plot against ASP7663-induced calcium influx, mTRPA1. The protocol:
HEK293 cells (#CRL-1573, ATCC, VA, USA) were cultured in DMEM media (#11995-065, Sigma-Aldrich, MO, USA) with 10% Fetal Bovine Serum (#F0926-500ML, Thermo Fisher, MA, USA). The cells were maintained in a 37 °C incubator with consistent 5% CO2. They were seeded in a clear 6 well flat bottom cell culture plates (#07-200-83, Corning ®, Thermo Fisher) with 500,000 cells/2 ml/well for transfection, in serum-free Opti-MEM (#31985070, Gibco®, Thermo Fisher). These cells were transfected with pcDNA3.1-mTRPA1 (#MR227099, OriGene, MD, USA), pcDNA3.1-zTRPA1a, or pcDNA3.1-zTRPA1b (a gift from Dr. David Prober) using X-tremeGENE^TM 9 (#6365809001, Sigma-Aldrich). After 24 hours, the transfected cells were dislodged with trypsin, resuspended in Opti-MEM, and seeded 25,000 cells/25 µl/well in 384-well black polystyrene microplates (#82051-296, VWR, PA, USA) for testing calcium signaling the following day. Experiments were carried out with the approval of the Institutional Biohazard Committee (#13-013-16).
Twenty-five µl calcium sensitive Fluorescent Imaging Plate Reader (FLIPR) Calcium 6 assay dye (#R8190, Molecular Devices, CA, USA) was added to each well of a 384-well plate containing HEK293 cells transiently expressing mTRPA1, zTRPA1a, and zTRPA1b, respectively. The cells were incubated for an hour prior to the recording of intracellular calcium levels in a FlexStation3 Multi-Mode Microplate Reader (#R8190, Molecular Devices) as previously described. All compounds were diluted in calcium buffer made with 1x HBSS (#14025-092, Thermo Fisher), 20 mM HEPES (#15630-080, Thermo Fisher), and 2.5 mM Probenecid (#P8761, Sigma-Aldrich). For agonist studies, ASP7663 (#5178, Tocris, Bristol, UK) was diluted in 1% DMSO-containing calcium buffer at desired concentrations and was added during the recording. The TRPA1 antagonists HC-030031 (#2896, Tocris), TCS-5861528 (#3938, Tocris), and A-967079 (#4716, Tocris) were diluted in calcium buffer, and 5 µl of 10x solutions were added 10 minutes prior to the recording. The same amount of DMSO (1%) was added to all control groups to maintain similar DMSO levels with the experimental groups. During the assay, the cells were challenged by a 5x ASP7663 solution or 1% DMSO solution at the 20 seconds time point, and both solutions were diluted in calcium buffer. Relative fluorescence units (RFU) were measured for 120 seconds period by the Flexstation. Area under the curve (AUC) was further evaluated from individual calcium influx data (Supplemental Figs 2 and 4) to plot does-response curve of antagonists. For each specific antagonist concentration we plotted Log(dose ratio-1) against the antagonist concentration in a Schild plot. The dose ratio (A’/A) equals the EC50 of the agonist ([…]) in the presence of a concentration of the antagonist (A’) divided by the EC50 of the agonist in the absence of antagonist (A). The x-intercept of the Schild plot was used to identify the antagonist-receptor affinity (pA2).
All data are presented as means ± standard error of the mean (SEM). For our in vitro statistical analysis, AUC of calcium influx (RFU) was measured to plot dose-response curves, which were further analyzed by nonlinear regression analysis. Mean RFU of the first 10 seconds was used as a baseline of the AUC. EC50 values of the dose-response curves were further used to plot Schild curves, and the curves were analyzed with linear regression analysis. For the mice von Frey test, mechanical thresholds were analyzed with two-way ANOVA followed by a Bonferonni test for multiple comparison analysis. For the zebrafish behavior test, the data from the first five seconds following drug administration were excluded, as zebrafish displacement during that period was highly influenced by liquid dispensing. AUC of all curves were measured and analyzed by one-way ANOVA. The post-hoc analysis was conducted with the Tukey’s or Dunnett’s multiple comparisons unless it stated otherwise. […]

For another assay, the system named is rat TRPA1. The arrangement: method as in PMID 21402443. The note with it: cited from earlier work.

In general, pA2 refers to the negative logarithm of the molar antagonist concentration that doubles the agonist concentration needed for the same response. The term IC50 denotes the midpoint of a concentration-inhibition curve.

T1 sequence (Q8BLA8 whole entry): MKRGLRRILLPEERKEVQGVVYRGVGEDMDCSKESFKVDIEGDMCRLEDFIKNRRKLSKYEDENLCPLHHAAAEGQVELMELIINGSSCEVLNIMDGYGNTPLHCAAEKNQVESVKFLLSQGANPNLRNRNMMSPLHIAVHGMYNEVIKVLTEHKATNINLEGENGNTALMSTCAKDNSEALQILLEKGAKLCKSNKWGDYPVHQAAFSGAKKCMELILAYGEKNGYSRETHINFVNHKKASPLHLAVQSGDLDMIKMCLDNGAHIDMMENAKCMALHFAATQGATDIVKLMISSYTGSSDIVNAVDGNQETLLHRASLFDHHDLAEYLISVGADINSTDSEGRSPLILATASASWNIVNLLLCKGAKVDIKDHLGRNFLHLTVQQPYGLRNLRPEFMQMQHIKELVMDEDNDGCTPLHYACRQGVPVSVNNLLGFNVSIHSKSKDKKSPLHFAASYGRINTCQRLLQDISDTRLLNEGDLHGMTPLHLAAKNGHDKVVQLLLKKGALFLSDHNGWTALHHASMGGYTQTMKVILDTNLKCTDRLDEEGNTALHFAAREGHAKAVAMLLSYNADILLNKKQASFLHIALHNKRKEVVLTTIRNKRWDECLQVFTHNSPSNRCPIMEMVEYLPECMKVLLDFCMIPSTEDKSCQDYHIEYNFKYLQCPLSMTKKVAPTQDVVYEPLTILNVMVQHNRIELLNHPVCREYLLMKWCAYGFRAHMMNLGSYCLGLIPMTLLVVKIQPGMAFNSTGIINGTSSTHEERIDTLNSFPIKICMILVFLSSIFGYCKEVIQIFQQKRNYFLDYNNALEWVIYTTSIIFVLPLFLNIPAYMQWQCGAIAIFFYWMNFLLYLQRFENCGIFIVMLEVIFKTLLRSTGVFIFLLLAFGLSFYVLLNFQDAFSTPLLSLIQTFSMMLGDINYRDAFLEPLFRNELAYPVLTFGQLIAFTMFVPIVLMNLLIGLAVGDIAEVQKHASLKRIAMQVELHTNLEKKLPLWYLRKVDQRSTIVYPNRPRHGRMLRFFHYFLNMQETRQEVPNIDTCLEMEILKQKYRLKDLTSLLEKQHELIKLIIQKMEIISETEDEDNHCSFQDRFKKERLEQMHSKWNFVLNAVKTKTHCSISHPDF

On to `CCC(C)c1ccc(NC(=O)Cn2cnc3c2c(=O)n(C)c(=O)n3C)cc1` (stereo not drawn) [TCS-5861528], for which, on mouse TRPA1 (mTRPA1), the pA2 is 5.34 ± 0.2 and the “pA2 expressed in µM” value was found to be 4.6 µM.
With `CCC(=N\O)/C(C)=C/c1ccc(F)cc1` [A-967076], on mouse TRPA1 (mTRPA1), the pA2 is reported as 7.0 ± 0.3 and the “pA2 expressed in µM” value is 0.09 µM. Also, in the assay on rat TRPA1, the IC50 was 0.289 µM and the “fold stronger than HC-030031” value is recorded as “about 25 fold”.
